Converted amounts (≈) assume the structure as drawn. “Also recorded” adds a separate entry of the source. Blank lines part the entries; values can stand above or below the compound they belong to.
How the values were obtained:
[1] = HPLC-RP retention time as measure of β-peptide hydrophobicity; format: physicochemical; details: used to sort the β-peptides by hydrophobicity
Procedure: Fig 1 i. Structures of antifungal β-peptides used in this study. The codification (#number) corresponds to the nomenclature used by Lee et al. in a previous publication. β-peptide (e) is a fluorescently labeled β-peptide. The C-terminus is amidated for all β-peptides. ii. HPLC-RP retention time for the β-peptides synthesized in this work, see Figs A-D in S1 File for further details. TEXT PRINTED IN THE PICTURE: (ii) #4: Retention time tR: 24.5 ± 0.2 min | (ii) #21: Retention time tR: 25.2 ± 0.2 min | (ii) #5: Retention time tR: 25.4 ± 0.1 min | (ii) #16: Retention time tR: 27.4 ± 0.2 min
The experiments compiled here establish structural-functional correlations of the β-peptides as a function of the cytotoxicity in mammalian cells other than erythrocytes.

Caco-2 cells [2] = assay: Clonogenic assay, long-term effect; format: cell-based; details: Caco-2, 20 μg/mL for 24 hours
Procedure: (§1) HepG2 and Caco-2 were tittered from a culture at 70–80% confluence. HepG2 and Caco-2 cells were seeded at 13,000 and 9,000 cells, respectively, in a clear flat bottom 96-well plate with dark walls (Corning, NY, USA). Then they were allowed to adhere and proliferate in DMEM for 48 hours. Agents were prepared under the following conditions: β-peptides were dissolved and diluted in DMEM to the final working concentration; while AmpB and Keto were first dissolved in DMSO as a vehicle. The DMSO concentration was kept under 0.5% v/v in the experimental sample as well as in the untreated control cell media. Cells were exposed to the agent during 24 hours. Afterwards, the cells were washed two times with Hank’s Balanced Salt Solution (HBSS). Then, fresh DMEM was added to each plate and incubated until the control reached approximately 90% confluency. Cell viability was determined using CellTiter Blue™ (Promega, WI, USA), an assay based on the capacity of cells to reduce resazurin to resorufin, a fluorescent product whose intensity is proportional to the viable cells in the sample. […] After incubation, the fluorescence was measured using a Spectra Max Gemini EM spectrofluorometer (560Ex/590Em) (Sunnyvale, CA, USA). The long-term effect of the treatments with β-peptides was assessed using the model peptide (ACHC-β3hV-β3hK) in a clonogenic assay. In these assays, 1.25x10^5 and 9x10^4 cells/ml from HepG2 and Caco-2, respectively, were seeded in a 25cm^2 flask. The media was changed every two days. Once cells reached a confluence between 70–80%, they were treated in the flask with (ACHC-β3hV-β3hK) at 20 μg/mL in DMEM, a sub-lethal concentration, for 24 hours. They were then washed two times with PBS and allowed to recover in fresh medium for six hours, followed by trypsinization and tittering.
(§2) The long-term cytotoxic effect of β-peptides was evaluated using clonogenic assays (see Fig F in S1 File). In order to validate the data obtained from the dose-response curves for Caco-2 and HepG2, (ACHC-β3hV-β3hK) was selected as a β-peptide model to perform these assays due to its well-established biological activity against C. albicans, its hemolytic activity, and, with this study, its effect on HepG2 and Caco-2. A constant concentration of 20 μg/mL was chosen for these experiments. The chosen concentration of (ACHC-β3hV-β3hK) falls within the range of concentrations used in short-term assays, where 20 μg/mL of this β-peptide assured that both of the cell lines were affected to the same extent.

HepG2 cells [3] = assay: Clonogenic assay, long-term effect; format: cell-based; details: HepG2, 20 μg/mL for 24 hours
Procedure: as §1, §2

HepG2 cells [4] = assay: cells; format: cell-based, human; details: for IC50 HepG2: 24 h
Procedure: as §1
(§3) In vitro cytotoxicity assessments for HepG2 and Caco-2 were performed two independent times, each with four replicates (n = 8). A multivariate study of the data was performed through PCA to ascertain the impact of increasing β-peptide hydrophobicity on the viability of the treated cells. PCA was done using XLSTAT 2014 trial version, under a Pearson approach. The input matrix set to the program consisted of eleven rows and four columns of data. The first column contained the concentrations tested and the remainder columns contained the viability ratio obtained after exposure to the β-peptides #4, #5, and #16 (see Fig 1ii). The data of β-peptide #21 was not used in this analysis due to structural differences (lack of ACHC residues), which affects the molecule’s helicity. The ratio IC50/MICaver represents the selectivity of the β-peptides for the fungal cells over that of host cells, termed selectivity index (SI). For the purpose of the present study the SIs were calculated based on MICs for C. albicans published previously.

Caco-2 cells [5] = assay: In vitro cytotoxicity, CellTiter Blue viability, dose-effect curves; format: cell-based; details: for IC50 Caco-2: 24 h
Procedure: as §1, §3

[6] = two independent times, each three biological replicates

SMILES: CC(C)[C@@H](CC(=O)N[C@@H](CCCCN)CC(N)=O)NC(=O)[C@H]1CCCC[C@@H]1NC(=O)C[C@H](CCCCN)NC(=O)C[C@@H](NC(=O)[C@H]1CCCC[C@@H]1NC(=O)C[C@H](CCCCN)NC(=O)C[C@@H](NC(=O)[C@H]1CCCC[C@@H]1N)C(C)C)C(C)C [#4, NH2-(ACHC-β^3hVal-β^3hLys)3]
- Retention time tR [1]: 24.5 ± 0.2 min
- surviving fraction (long-term) versus short-term viability; colony forming ability (Caco-2 cells [2]; listed as (ACHC-β3hV-β3hK)): no significant difference; also recorded: slight decrease in colony forming ability
- plating efficiency of treated cells (Caco-2 cells [2]; [6]): > 22%
- surviving fraction (long-term) versus short-term viability (HepG2 cells [3]): no significant difference
- plating efficiency of treated cells (HepG2 cells [3]; [6]): > 9.5%
- IC50 HepG2 (HepG2 cells [4]): 38.75 ± 0.89 µg/mL (≈ 33.4 µM)
- IC50 Caco-2 (Caco-2 cells [5]): 27.33 ± 1.5 µg/mL (≈ 23.6 µM)

- Retention time tR [1]: 25.4 ± 0.1 min
- IC50 HepG2 (HepG2 cells [4]): 47.25 ± 5.12 µg/mL (≈ 38 µM)
SMILES: CC(C)[C@@H](CC(=O)N[C@@H](CCCNC(=N)N)CC(N)=O)NC(=O)[C@H]1CCCC[C@@H]1NC(=O)C[C@H](CCCNC(=N)N)NC(=O)C[C@@H](NC(=O)[C@H]1CCCC[C@@H]1NC(=O)C[C@H](CCCNC(=N)N)NC(=O)C[C@@H](NC(=O)[C@H]1CCCC[C@@H]1N)C(C)C)C(C)C [#5, NH2-(ACHC-β^3hVal-β^3hArg)3]
- IC50 Caco-2 (Caco-2 cells [5]): 43.33 ± 9.0 µg/mL (≈ 34.9 µM)

- IC50 HepG2 (HepG2 cells [4]): 42.5 ± 6.21 µg/mL (≈ 28.7 µM)
SMILES: NCCCC[C@@H](CC(N)=O)NC(=O)C[C@H](Cc1ccccc1)NC(=O)[C@H]1CCCC[C@@H]1NC(=O)C[C@H](CCCCN)NC(=O)C[C@H](Cc1ccccc1)NC(=O)[C@H]1CCCC[C@@H]1NC(=O)C[C@H](CCCCN)NC(=O)C[C@H](Cc1ccccc1)NC(=O)[C@H]1CCCC[C@@H]1NC(=O)C[C@@H](N)Cc1ccc(O)cc1 [#16, NH2-β^3hTyr-(ACHC-β^3hPhe-β^3hLys)3]
- cytotoxicity towards HepG2, dose-effect curve in words (HepG2 cells [4]): greatest toxic effect at these lower concentrations

- Retention time tR [1]: 25.2 ± 0.2 min
- IC50 HepG2 (HepG2 cells [4]): 52.5 ± 4.98 µg/mL (≈ 37.9 µM)
SMILES: CC(C)[C@@H](CC(=O)N[C@@H](CCCNC(=N)N)CC(=O)N[C@H](CC(=O)N[C@H](CC(=O)N[C@@H](CCCNC(=N)N)CC(=O)N[C@H](CC(=O)N[C@H](CC(=O)N[C@@H](CCCNC(=N)N)CC(N)=O)C(C)C)C(C)C)C(C)C)C(C)C)NC(=O)C[C@@H](NC(=O)C[C@@H](N)Cc1ccc(O)cc1)C(C)C [#21, NH2-β^3hTyr-(β^3hVal-β^3hVal-β^3hArg)3]
- IC50 Caco-2 (Caco-2 cells [5]): 31.33 ± 3.27 µg/mL (≈ 22.6 µM)

SMILES: C[C@@H]1[C@H](O)[C@@H](C)/C=C/C=C/C=C/C=C/C=C/C=C/C=C/[C@H](O[C@@H]2O[C@H](C)[C@@H](O)[C@H](N)[C@@H]2O)C[C@@H]2O[C@](O)(C[C@@H](O)C[C@@H](O)[C@H](O)CC[C@@H](O)C[C@@H](O)CC(=O)O[C@H]1C)C[C@H](O)[C@H]2C(=O)O [AmpB, Amphotericin B, reference compound]
- cytotoxicity towards HepG2, dose-effect curve in words (HepG2 cells [4]): did not reach 100% cytotoxicity
- IC30 HepG2 (HepG2 cells [4]; 24 hours of exposure, from dose-effect curve): 30 µg/mL (≈ 32.5 µM)
- inhibition at 30 µg/mL (HepG2 cells [4]; Homo sapiens, HepG2, 30 μg/mL, 24 hours of exposure): 30%
- cytotoxicity towards Caco-2, dose-effect curve in words (Caco-2 cells [5]; Caco-2): did not affect the viability

SMILES: CC(=O)N1CCN(c2ccc(OCC3COC(Cn4ccnc4)(c4ccc(Cl)cc4Cl)O3)cc2)CC1 (stereo not shown) [Keto, ketoconazole, reference compound]
- IC50 (HepG2 cells [4]; Homo sapiens, HepG2, 24 hours of exposure, CellTiter Blue, two independent experiments, each four replicates (n = 8)): 70 µg/mL (≈ 132 µM)
- cytotoxicity towards Caco-2, dose-effect curve in words (Caco-2 cells [5]; 24 hours of exposure, tested concentration range): not statistically different than the response observed for HepG2

SMILES: COc1ccc2cc(C(=O)NCCOCCOCC(=O)N[C@H]3CCCC[C@@H]3C(=O)N[C@H](CC(=O)N[C@@H](CCCCN)CC(=O)N[C@H]3CCCC[C@@H]3C(=O)N[C@H](CC(=O)N[C@@H](CCCCN)CC(=O)N[C@H]3CCCC[C@@H]3C(=O)N[C@H](CC(=O)N[C@@H](CCCCN)CC(N)=O)C(C)C)C(C)C)C(C)C)c(=O)oc2c1 [coumarin-(ACHC-β3hV-β3hK)]
- effect on viability at 16 μg/mL (HepG2 cells [4]): does not exert a significant effect on viability
